Common to all, as to assay: In vitro assay of antibacterial activity (agar dilution MIC)
Format in all cases: cell-based
For orientation: In agar dilution, organisms are placed on agar that contains the substance at set levels.

Experiment [1] has as its system ESCHERICHIA COLI DC-2. To be noted: BHI agar, 35-37 °C for 20 to 24 hours, unit assumed. The procedure: (§1) Representative compounds of the present invention were assayed in vitro for antibacterial activity as follows: Twelve petri dishes containing successive aqueous dilutions of the test compound mixed with 10 mL of sterilized Brain Heart Infusion (BHI) agar (Difco 0418-01-5) were prepared. Each plate was inoculated with 1:100 (or 1:10 for slow-growing strains, such as Micrococcus and Streptococcus) dilutions of up to 32 different microorganisms, using a Steers replicator block. The inoculated plates were incubated at 35-37 °C for 20 to 24 hours. In addition, a control plate, using BHI agar containing no test compound, was prepared and incubated at the beginning and end of each test.
(§2) An additional plate containing a compound having known susceptibility patterns for the organisms being tested and belonging to the same antibiotic class as the test compound was also prepared and incubated as a further control, as well as to provide test-to-test comparability. Erythromycin A was used for this purpose.
(§3) After incubation, each plate was visually inspected. The minimum inhibitory concentration (MIC) was defined as the lowest concentration of drug yielding no growth, a slight haze, or sparsely isolated colonies on the inoculum spot as compared to the growth control.

Experiment [2] has as its system STAPHYLOCOCCUS AUREUS 1775. To be noted: BHI agar, 35-37 °C for 20 to 24 hours, unit assumed. The method, then: as §1, §2, §3
The test system of experiment [3] is STREPTOCOCCUS BOVIS A-5169. The following applies: BHI agar, 35-37 °C for 20 to 24 hours, unit assumed. The procedure:
as §1, §2, §3

The test system of experiment [4] is STAPHYLOCOCCUS AUREUS NCTC10649M. The following applies: BHI agar, 35-37 °C for 20 to 24 hours, unit assumed. The procedure:
as §1, §2, §3

Experiment [5] relates to CANDIDA ALBICANS CCH 442. The following applies: BHI agar, 35-37 °C for 20 to 24 hours, unit assumed. The method, then:
as §1, §2, §3

In experiment [6] the test system is STREPTOCOCCUS PYOGENES EES61. The following applies: BHI agar, 35-37 °C for 20 to 24 hours, unit assumed. The method, then: as §1, §2, §3
The subject of experiment [7] is STREPTOCOCCUS PYOGENES PIU 2548. To be noted: BHI agar, 35-37 °C for 20 to 24 hours, unit assumed. The method, then:
as §1, §2, §3

Experiment [8] concerns M[…] ATCC 4698. The following applies: BHI agar, 35-37 °C for 20 to 24 hours, unit assumed. The procedure: as §1, §2, §3
For experiment [9], the system named is STAPHYLOCOCCUS AUREUS A5177. The following applies: BHI agar, 35-37 °C for 20 to 24 hours, unit assumed. The procedure:
as §1, §2, §3

For experiment [10], the system named is ESCHERICHIA COLI SS. To be noted: unit assumed. The procedure:
as §1, §2, §3

Experiment [11] deals with STR[…] 508. To be noted: BHI agar, 35-37 °C for 20 to 24 hours, unit assumed. The method, then: as §1, §2, §3
Experiment [12] relates to ESCHERICHIA COLI JUHL. The following applies: unit assumed. The method, then: as §1, §2, §3
Experiment [13] relates to STAPHYLOCOCCUS AUREUS CMX 642A. To be noted: BHI agar, 35-37 °C for 20 to 24 hours, unit assumed. The procedure: as §1, §2, §3
The test system of experiment [14] is STAPHYLOCOCCUS EPIDERMIDIS 3519. The following applies: unit assumed. The method, then:
as §1, §2, §3

In experiment [15] the test system is STAPHYLOCOCCUS AUREUS CMX 553. The following applies: BHI agar, 35-37 °C for 20 to 24 hours, unit assumed. The procedure: as §1, §2, §3
Experiment [16] deals with STAPHYLOCOCCUS AUREUS ATCC 6538P. The following applies: BHI agar, 35-37 °C for 20 to 24 hours, unit assumed. The method, then: as §1, §2, §3
Experiment [17] has as its system N. ASTEROIDES ATCC 9970. The following applies: BHI agar, 35-37 °C for 20 to 24 hours, unit assumed. The procedure: as §1, §2, §3
In experiment [18] the test system is STREPTOCOCCUS PYOGENES 930. To be noted: BHI agar, 35-37 °C for 20 to 24 hours, unit assumed. The procedure: as §1, §2, §3
The test system of experiment [19] is STAPHYLOCOCCUS AUREUS A-5278. To be noted: BHI agar, 35-37 °C for 20 to 24 hours, unit assumed. The procedure: as §1, §2, §3
In experiment [20] the test system is MYCOBACTERIUM SMEGMATIS ATCC 114. The following applies: BHI agar, 35-37 °C for 20 to 24 hours, unit assumed. The method, then:
as §1, §2, §3

Experiment [21] concerns EN[…] ATCC 8043. To be noted: BHI agar, 35-37 °C for 20 to 24 hours, unit assumed. The method, then: as §1, §2, §3
The subject of experiment [22] is M[…] ATCC 9341. The following applies: BHI agar, 35-37 °C for 20 to 24 hours, unit assumed. The procedure:
as §1, §2, §3

Where [23] appears, read: STREPTOCOCCUS PYOGENES PIU 2548.
Where [24] appears, read: ESCHERICHIA COLI SS, BHI agar, 35-37 °C for 20 to 24 hours.
Setting [25] is: STREPTOCOCCUS AGALACTIAE CMX 508.
Setting [26] is: ESCHERICHIA COLI JUHL, BHI agar, 35-37 °C for 20 to 24 hours.
Where [27] appears, read: STAPHYLOCOCCUS EPIDERMIDIS 3519, BHI agar, 35-37 °C for 20 to 24 hours.
Setting [28] is: MYCOBACTERIUM SMEGMATIS ATCC 114.

On to `CC[C@H]1OC(=O)[C@H](C)[C@@H](O[C@H]2C[C@@](C)(OC)[C@@H](O)[C@H](C)O2)[C@H](C)[C@@H](O[C@@H]2O[C@H](C)C[C@H](N(C)C)[C@H]2O)[C@](C)(O)C[C@@H](C)C(=O)[C@H](C)[C@@H](O)[C@]1(C)O` [Ery A, Erythromycin A, reference compound], for which the Antibacterial Activity (MIC's) was 100 mg/L in [1]; above 100 mg/L in [2]; 0.01 mg/L in [3] (STR[…] A-5169); 0.39 mg/L in experiment [4]; above 100 mg/L in experiment [5]; 0.02 mg/L in experiment [6] (STR[…] EES61). In addition, the Antibacterial Activity (MIC's) stood at 3.1 mg/L in [7] (STR[…] PIU 2548); 0.39 mg/L in experiment [8] (M[…] ATCC 4698); 3.1 mg/L in experiment [9]; 0.39 mg/L in experiment [10]; 0.02 mg/L in [11] (STR[…] 508); 50 mg/L in experiment [12]. The Antibacterial Activity (MIC's) in experiment [13] is 0.39 mg/L; in [14] it was 0.2 mg/L; in experiment [15], 0.39 mg/L; in experiment [16], 0.2 mg/L; in experiment [17] it was 0.1 mg/L; in experiment [18] (STR[…] 930) it was above 100 mg/L. Further, the Antibacterial Activity (MIC's) is above 100 mg/L in [19], 1.56 mg/L in [20] (MYC[…] ATCC 114), 0.1 mg/L in experiment [21] (EN[…] ATCC 8043) and 0.02 mg/L in [22] (M[…] ATCC 9341).
As to `CC[C@H]1OC(=O)[C@H](C)C(=O)[C@H](C)[C@@H](O[C@@H]2O[C@H](C)C[C@H](N(C)C)[C@H]2O)[C@](C)(OC)C[C@@H](C)C2=Nc3ccccc3N3C(=O)O[C@@]1(C)[C@H]3[C@H]2C` [Ex 2, Compound of Formula (I): R^1 is methoxy: R^2 is H, R^3 is absent, the double bond is present, A, B, D and E are H, and Y and Z taken together with the atom to which they are attached form an oxo group], the Antibacterial Activity (MIC's) was above 100 mg/L in experiment [1]; above 100 mg/L in [2]; 0.1 mg/L in [3] (STREPTOCOCCUS BOVIS A-5169); 0.39 mg/L in [4]; above 100 mg/L in [5]; 0.1 mg/L in experiment [6] (STREPTOCOCCUS PYOGENES EES61). Further, the Antibacterial Activity (MIC's) is 0.39 mg/L in [7] (setting [23]); 0.78 mg/L in experiment [8] (MICROCOCCUS LUTEUS ATCC 4698); 0.39 mg/L in experiment [9]; 1.56 mg/L in [10] (setting [24]); 0.1 mg/L in experiment [11] (setting [25]); above 100 mg/L in experiment [12] (setting [26]). Besides, the Antibacterial Activity (MIC's) in experiment [13] is 0.39 mg/L; in experiment [14] (setting [27]), 0.39 mg/L; in experiment [15] it was 0.39 mg/L; in [16], 0.39 mg/L; in experiment [17] it was 0.39 mg/L; in experiment [18] (STREPTOCOCCUS PYOGENES 930), above 100 mg/L. In addition, the Antibacterial Activity (MIC's) was above 100 mg/L in experiment [19], 3.1 mg/L in experiment [20] (setting [28]), 0.2 mg/L in experiment [21] (ENTEROCOCCUS FAECIUM ATCC 8043) and 0.1 mg/L in [22] (MICROCOCCUS LUTEUS ATCC 9341).
As for `CC[C@H]1OC(=O)[C@H](C)C(=O)[C@H](C)[C@@H](O[C@@H]2O[C@H](C)C[C@H](N(C)C)[C@H]2O)[C@](C)(OC)C[C@@H](C)C2=Nc3cc(OC)ccc3N3C(=O)O[C@@]1(C)[C@H]3[C@H]2C` [Ex 5, Compound of Formula (I): R^1 is methoxy; R^2 is H, R^3 is absent, the double bond is present, A, B, and E are H, D is methoxy, and Y and Z taken together with the atom to which they are attached form an oxo group], the Antibacterial Activity (MIC's) was above 100 mg/L in [1]; above 100 mg/L in [2]; 0.02 mg/L in experiment [3] (STREPTOCOCCUS BOVIS A-5169); 0.78 mg/L in experiment [4]; above 100 mg/L in [5]; 0.02 mg/L in [6] (STREPTOCOCCUS PYOGENES EES61). Moreover, the Antibacterial Activity (MIC's) is 0.39 mg/L in [7] (setting [23]); 0.78 mg/L in experiment [8] (MICROCOCCUS LUTEUS ATCC 4698); 0.78 mg/L in experiment [9]; 50 mg/L in experiment [10] (setting [24]); 0.02 mg/L in experiment [11] (setting [25]); above 100 mg/L in experiment [12] (setting [26]). In addition, the Antibacterial Activity (MIC's) was 0.78 mg/L in [13]; 0.78 mg/L in experiment [14] (setting [27]); 0.78 mg/L in experiment [15]; 0.78 mg/L in experiment [16]; 0.2 mg/L in experiment [17]; above 100 mg/L in [18] (STREPTOCOCCUS PYOGENES 930). The Antibacterial Activity (MIC's) was above 100 mg/L in experiment [19], 1.56 mg/L in experiment [20] (setting [28]), 0.1 mg/L in experiment [21] (ENTEROCOCCUS FAECIUM ATCC 8043) and 0.1 mg/L in experiment [22] (MICROCOCCUS LUTEUS ATCC 9341).

Values taken from patent publication EP0984975B1, “MULTICYCLIC ERYTHROMYCIN DERIVATIVES” (Abbott Laboratories, priority 1997, dated 1998).
